Entries after “also recorded” stand apart in the source; their conditions may differ.
Key:
Aspc1 cells [1] = test: Aspc1 cell viability over time (AlamarBlue proliferation curves); format: cell-based, human; details: 0.1 μM or 1.0 μM, relative to vehicle (FIG. 1a)
Experimental: For proliferation curves, cells were plated in 96-well plates (Corning, 3603) and allowed to seed overnight. Replicate plates were plated for each time point since viability measurements were an endpoint procedure. The following day, cells were treated with Compound at indicated concentrations and treated with DMSO at the highest used concentration (always below 0.003%). Cells were treated for 96 hours, and viability was determined every 24 hours using AlamarBlue reagent (BioRad, BUF012B). Briefly, 10 μL of AlamarBlue was added to each well (100 μL), mixed briefly, and allowed to incubate at 37° C. and 5% CO2 for 4 hours. Following incubation, fluorescence was measured on a Promega multimode microplate reader. For analysis, background levels were subtracted from raw results, which were then normalized to be represented as a fold change compared to DMSO-treated cells on Day 0. All assays were carried out in at least triplicate with 4-8 technical replicates per treatment group, per experiment. (FIG. 1a and FIG. 10b)

Aspc1 cells [2] = test: Cell cycle analysis by flow cytometry (DNA content, PH3) in Aspc1 cells; format: cell-based, human
Experimental: Cells were seeded into 12-well or 6-well plates such that 16 hours later they would be approximately 30-50% confluent. Cells were then treated for 24 hours with either DMSO (<0.003%), Compound 1 (100 nM or 1 μM), or 100 nM nocodazole (Sigma, M1404). Following treatment, cells were harvested and fixed in ice-cold 70% ethanol for a minimum of one hour. Following fixation, cells were re-suspended in PBS+2% FBS+3 μM DAPI (BioLegend, 422801) or 0.25 μg 7-AAD (BD Pharmingen, 559925), and analyzed on a MACSQuant® Analyzer 10 (Miltenyi Biotec) or BD LSR II™. For cell cycle analysis time course experiments, cells were prepared as described above, except treated for 24, 48, or 72 hours. Data was analyzed using FlowJo software. Percent populations in G2/M were identified using the univariate cell cycle platform offered by FlowJo software. Percent populations >4N were determined by gating above the 4N population of DMSO-treated cells. (FIG. 1b, FIG. 1c, FIG. 2a, FIG. 2b, FIG. 10e, and FIG. 10g)
For phospho-Histone H3 (PH3) staining, cells were fixed and permeabilized according to manufacturer's instructions using the eBioscience Foxp3/Transcription Factor Staining Buffer Set (ThermoFisher, 00-5523-00). Cells were blocked with Fc Block (BD Biosciences, 564220) and stained using a PH3 (Ser10) antibody (BioLegend, 650805) with 5 uL per million cells (45 min, room temp, dark). Samples were analyzed on a BD Fortessa™ and analyzed by FlowJo software. (FIG. 1d and FIG. 3a)

[3] = Plasma pharmacokinetic time course in mice after a single oral dose; format: in vivo; details: single oral dose 10 mg/kg (FIG. 4a)
Experimental: (§1) Blood plasma and tissue samples to be used for analysis were immediately frozen on dry ice and stored at −80° C. until analysis. Concentrations of Compound 1 in samples were quantified using high-performance liquid chromatography with tandem mass spectrometry (LC-MS/MS). Compound 1 and its internal standard (deuterated Compound 1) were recovered by protein precipitation extraction from samples.
For the plasma pharmacokinetic time course study, a standard curve was made to cover concentrations between 0.001 ug/mL and 3.0 μg/mL. The lower limit of quantification (LLOQ) for Compound 1 (either version) in plasma was 0.001 μg/mL. (FIG. 4a)

[4] = Compound 1 levels in plasma, quadriceps and PDA tissue of KPC mice; format: in vivo; details: 24 hours after single oral dose 10 mg/kg (FIG. 5a)
Experimental: as §1
For the pharmacokinetic study that assessed plasma, quadriceps muscle, and tumor tissue following a single dose of Compound 1 the assay conditions were as follows (FIG. 5a):
Plasma: A standard curve was made to cover concentrations between 0.002 ug/mL and 6.0 ug/mL. the LLOQ for Compound 1 (either version) in plasma was 0.001 μg/mL
Quadriceps muscle: A standard curve was made to cover concentrations between 0.001 μg/g wet tissue and 3.0 μg/g wet tissue. The LLOQ for Compound 1 (either version) was 0.01 μg/g wet tissue.
Tumor tissue: A standard curve was made to cover concentrations between 0.001 μg/g wet tissue and 3.0 μg/g wet tissue. The LLOQ for Compound 1 (either version) was 0.02 μg/g wet tissue.

tubulin = test: Immunocytochemistry of tubulin and DAPI in Aspc1 cells; format: cell-based, human; details: 24 hours, relative to vehicle (FIGS. 11c, 11d)
Experimental: Cells were seeded onto glass coverslips in 12-well plates. Coverslips were prepared by soaking in 1N HCl (60° C., 6 hours), washing in 70% ethanol, and coating with poly-l-lysine (Sigma, P5899) according to manufacturer's instructions. Cells were seeded such that they would be 50% confluent the following day. Cells were then treated with vehicle (DMSO, <0.003%) or 1 μM Compound 1 and incubated for 24 hours. Following treatment, cells were washed with TBS and free tubulin was extracted with Brinkley Buffer 1980 (80 mM PIPES pH 6.8, 1 mM MgCl2, 1 mM EGTA) supplemented with 4 mM EGTA and 0.5% Triton-X (30 seconds). After extraction, cells were fixed for 20 minutes in 4% formaldehyde diluted in Cytoskeleton Buffer (10 mM MES pH 6.1, 138 mM KCl, 3 mM MgCl2, 2 mM EGTA) supplemented with 0.32M sucrose. […]
Confocal imaging was performed using an A1 laser scanning confocal attachment on an Eclipse Ti microscope stand using a 60x/1.49 ApoTIRF oil-immersion objective and standard lasers and filter sets (Nikon Instruments, Melville, N.Y.). […] Images were visualized, analyzed, and prepared for publication using the Fiji distribution of ImageJ (Schindelin J, Arganda-Carreras I, Frise E, et al. Fiji: an open-source platform for biological-image analysis. Nature Methods 2012; 9:676-682). […]

Cc1nc2ccc(F)cc2n1-c1nc(N)c(F)c(Nc2ccc(C(F)(F)F)cc2)n1 [Compound 1, 5-fluoro-2-(6-fluoro-2-methyl-1H-benzo[d]imidazol-1-yl)-N4-[4-(trifluoromethyl)phenyl]pyrimidine-4,6-diamine]
relative Aspc1 cell viability over time (Aspc1 cells [1]): dose and time-dependent decrease in human PDA cell viability
cell cycle arrest (percent cells in G0/G1, S, G2/M; percent in mitosis PH3+/4N) (Aspc1 cells [2]; 0.1 μM or 1.0 μM, 24 hours (FIGS. 1b-1d)): dose and time-dependent effect in cell cycle arrest
percent of Aspc1 cells with DNA content >4N (polyploidy) (Aspc1 cells [2]; 0.1 μM or 1.0 μM, 24, 48, 72 hours (FIGS. 2a, 2b)): dose and time-dependent increase in the amount of human PDA cells affected by polyploidy
mitotic arrest and apoptosis (Aspc1 cells [2]; multiple PDA cell lines (summary statement)): induce mitotic arrest and apoptosis in multiple PDA cell lines
CNS penetration / brain distribution [3]: penetrates the CNS and distributes into brain tissues
plasma / circulating half-life ([3]; 10 mg/kg): long circulating half-life; also recorded: long plasma half-life
distribution into PDA tumor tissue [4]: effective biodistribution into tumor tissues; also recorded: distributes into PDA tissues
tubulin staining in Aspc1 cells (tubulin): significant reduction in tubulin formation

Source: patent US12023335B2, “Method for treating pancreatic cancer” (PTC THERAPEUTICS, INC., priority 2018, dated 2024)
